Laboratory results from patent US5001134A, “Piperidines, processes of preparation and medications containing them” (Lipha, Lyonnaise Industrielle Pharmaceutique, priority 1989, dated 1991).

Assays:
[1] = tested on: genetically hypertensive rat (SHR); assay: Antihypertensive activity in the genetically hypertensive rat (SHR), oral, arterial pressure measured 3 hours later; type: in vivo; details: SHR male rats, groups of 10, 3 hours after oral treatment, read-out: Antihypertensive activity (SHR) M.A.D. (minimum dose significantly reducing the mean arterial pressure)
Description: The antihypertensive activity was investigated in the genetically hypertensive rat (SHR) whose arterial pressure was regularly monitored: hypertensive male rats having a particularly stable arterial pressure are grouped by 10 and treated orally with the compounds being studied Their arterial pressure is measured 3 hours later.
(§1) The results obtained by these two methods in the case of a few products of the invention and in the case of ketanserin (3-[2-[4-(4-fluorobenzoyl)-1-piperidinyl]ethyl]quinazolin-2,4-(1H,3H)-dione), taken as control, are listed in Table I.

[2] = tested on: isolated rat aorta; assay: Antagonism towards serotonin in vitro on the isolated rat aorta (serotonin-triggered contraction); details: contraction by serotonin 20 μM, product added 10 min after serotonin, left 15 min, minimum of 3 aortas, read-out: Isolated rat aorta antiserotonin activity IC 50
Description: The thoracic aorta is rapidly removed. A fragment of approximately 1 cm is cut into a spiral and then placed in a cell containing 20 ml of nutrient medium (Krebs-Henseleit) kept at 37° C. and oxygenated (95% O2, 5% CO2). The contraction is recorded using an isotonic strain gauge. After a rest of 45 min, supramaximal contractions are triggered by adding serotonin (20 μM) to the survival medium. A plateau is generally reached after 10 min of contact, the latter not exceeding 25 min. A rest of 30 min and numerous rinsings separate each contraction. The products are added 10 min after the serotonin and left for 15 min, at the end of which period the inhibition is measured. The inhibiting concentration 50 (IC 50) is determined for each compound being studied on a minimum of 3 aortas.
as §1

[3] = Toxicity, 50 lethal dose on the rat using the oral route; details: in vivo
Description: By way of illustration, the 50 lethal dose determined on the rat using the oral route, in the case of the compound described in Example 1, is 1,700 mg/kg, that is 170 times the active dose in this species.

| IC50 [2] [nM] | Compound | minimal effective dose [1] [mg/kg] | LD50 ([3]; oral route) [mg/kg] | selectivity ratio ([3]; oral, LD50 / active dose, read-out: 50 lethal dose as multiple of the active dose in this species) |
| --- | --- | --- | --- | --- |
| 460 | CN(C)C(=NCCN1CCC(C(=O)c2ccc(F)cc2)CC1)NC#N [Example 10, N'-Cyano-N,N-dimethyl-N"-[2-[4-(4-fluorobenzoyl)-1-piperidinyl]ethyl]guanidine] | 10 |  |  |
| 1950 | CN(C)C(=NC#N)NCCCN1CCC(C(=O)c2ccc(F)cc2)CC1 [Example 13] | 5 |  |  |
| 170 | CN=C(NC#N)NCCCN1CCC(C(=O)c2ccc(F)cc2)CC1 [Example 12, N-Cyano-N'-[3-[4-(4-fluorobenzoyl)-1-piperidinyl]propyl]-N"-methylguanidine] | 5 |  |  |
| 2900 | CNC(=C[N+](=O)[O-])NCCN1CCC(C(=O)c2ccc(F)cc2)CC1 [Example 24, N-[2-[4-(4-Fluorobenzoyl)-1-piperidinyl]ethyl]-N'-methyl-2-nitro-1,1-ethenediamine] | 10 |  |  |
| 670 | CN=C(NC#N)NCCCCN1CCC(C(=O)c2ccc(F)cc2)CC1 [Example 14, N-Cyano-N'-[4-[4-(4-fluorobenzoyl)-1-piperidinyl]butyl]-N"-methylguanidine] | 10 |  |  |

Continued, compound first:

| Compound | IC50 [2] [nM] | minimal effective dose [1] [mg/kg] | LD50 ([3]; oral route) [mg/kg] | selectivity ratio ([3]; oral, LD50 / active dose, read-out: 50 lethal dose as multiple of the active dose in this species) |
| --- | --- | --- | --- | --- |
| CN(C)C(=NCCCN1CCC(c2noc3cc(F)ccc23)CC1)NC#N [Example 21, N'-Cyano-N,N-dimethyl-N"-[3-[4-(6-fluoro-1,2-benzisoxazol-3-yl)-1-piperidinyl]propyl]guanidine] | 100 | 2 |  |  |
| CNC(=NC#N)NCCN1CCC(C(=O)c2ccc(F)cc2)CC1 [Example 1, N-Cyano-N'-[2-[4-(4-fluorobenzoyl)-1-piperidinyl]ethyl]-N"-methylguanidine] | 530 | 10 | 1700 | 170 |
| CCNC(=NCCCN1CCC(c2noc3cc(F)ccc23)CC1)NC#N [Example 20, N-Cyano-N'-ethyl-N"-[3-[4-(6-fluoro-1,2-benzisoxazol-3-yl)-1-piperidinyl]propyl]guanidine] | 40 | 0.5 |  |  |
| CN=C(NC#N)NCCCN1CCC(c2noc3cc(F)ccc23)CC1 [Example 19, N-Cyano-N'-[3-[4-(6-fluoro-1,2-benzisoxazol-3-yl)-1piperidinyl]propyl]-N"-methylguanidine] | 50 | 0.5 |  |  |
| CNC(=C[N+](=O)[O-])NCCN1CCC(c2noc3cc(F)ccc23)CC1 [Example 26, N-[2-[4-(6-Fluoro-1,2-benzisoxazol-3-yl)-1-piperidinyl]ethyl]-N'-methyl-2-nitro-1,1-ethenediamine] | 380 | 5 |  |  |
| CN=C(NC#N)NCCN1CCC(c2noc3cc(F)ccc23)CC1 [Example 18, N-Cyano-N'-[2-[4-(6-fluoro-1,2-benzisoxazol-3-yl)-1-piperidinyl]ethyl]-N"-methylguanidine] | 90 | 2 |  |  |
| O=C(c1ccc(F)cc1)C1CCN(CCn2c(=O)[nH]c3ccccc3c2=O)CC1 [Ketanserin, 3-[2-[4-(4-fluorobenzoyl)-1-piperidinyl]ethyl]quinazolin-2,4-(1H,3H)-dione, reference compound] | 150 | 25 |  |  |
| N#CNC(=N)NCCCN1CCC(c2noc3cc(F)ccc23)CC1 [Example 22, N-Cyano-N'-[3-[4-(6-fluoro-1,2-benzisoxazol-3-yl)-1-piperidinyl]propyl]guanidine] | 20 | 5 |  |  |
